{
  "source": "patent US20210341448A1",
  "about": "“SCREENING METHOD FOR THERAPEUTIC DRUG OR PROPHYLACTIC DRUG FOR TAUOPATHY AND DIAGNOSTIC METHOD FOR TAUOPATHY” (National Center for Geriatrics and Gerontology, priority 2018, published 2021)",
  "key": {"NMDAR complex": {"target": "T1, NMDAR complex (Mus musculus, UniProt P35436+P35438+Q01097)", "T1 construct": "from tissue", "T1 sequence (P35436 23-1464, other chains not shown)": "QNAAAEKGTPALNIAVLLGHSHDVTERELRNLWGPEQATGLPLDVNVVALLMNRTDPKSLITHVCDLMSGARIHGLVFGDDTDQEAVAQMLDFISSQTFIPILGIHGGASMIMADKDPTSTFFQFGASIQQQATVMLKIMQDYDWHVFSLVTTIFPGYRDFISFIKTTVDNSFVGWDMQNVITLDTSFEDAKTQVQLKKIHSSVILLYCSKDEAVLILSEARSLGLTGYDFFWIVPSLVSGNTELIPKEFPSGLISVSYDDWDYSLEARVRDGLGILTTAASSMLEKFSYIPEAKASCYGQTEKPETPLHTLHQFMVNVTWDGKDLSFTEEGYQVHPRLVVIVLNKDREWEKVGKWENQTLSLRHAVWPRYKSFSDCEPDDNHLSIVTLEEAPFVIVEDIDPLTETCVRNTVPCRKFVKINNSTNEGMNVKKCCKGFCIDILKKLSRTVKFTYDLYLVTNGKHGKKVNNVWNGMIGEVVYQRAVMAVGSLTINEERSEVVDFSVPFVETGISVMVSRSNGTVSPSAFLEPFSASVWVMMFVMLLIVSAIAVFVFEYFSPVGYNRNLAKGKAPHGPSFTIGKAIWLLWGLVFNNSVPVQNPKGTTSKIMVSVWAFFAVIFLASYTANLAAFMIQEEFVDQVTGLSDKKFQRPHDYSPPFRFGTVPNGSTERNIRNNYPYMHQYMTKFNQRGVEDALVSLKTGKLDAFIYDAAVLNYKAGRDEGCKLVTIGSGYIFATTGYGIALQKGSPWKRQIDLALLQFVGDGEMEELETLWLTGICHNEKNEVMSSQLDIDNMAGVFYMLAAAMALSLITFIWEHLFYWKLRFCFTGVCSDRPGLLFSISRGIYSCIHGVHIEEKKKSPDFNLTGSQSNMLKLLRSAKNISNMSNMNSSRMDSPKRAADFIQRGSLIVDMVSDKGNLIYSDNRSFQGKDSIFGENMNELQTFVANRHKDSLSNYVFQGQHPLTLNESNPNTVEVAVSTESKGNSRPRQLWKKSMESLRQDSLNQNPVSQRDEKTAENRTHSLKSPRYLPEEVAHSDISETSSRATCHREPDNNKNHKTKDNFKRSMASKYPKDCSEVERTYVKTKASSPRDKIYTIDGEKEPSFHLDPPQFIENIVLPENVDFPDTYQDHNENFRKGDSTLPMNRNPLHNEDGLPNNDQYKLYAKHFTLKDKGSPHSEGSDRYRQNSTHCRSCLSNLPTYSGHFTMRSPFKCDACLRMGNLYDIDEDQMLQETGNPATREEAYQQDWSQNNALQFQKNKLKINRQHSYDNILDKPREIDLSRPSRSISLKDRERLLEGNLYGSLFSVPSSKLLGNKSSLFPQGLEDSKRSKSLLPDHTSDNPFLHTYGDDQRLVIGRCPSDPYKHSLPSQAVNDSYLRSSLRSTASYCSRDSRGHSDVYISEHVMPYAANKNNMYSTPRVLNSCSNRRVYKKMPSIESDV", "T1 sequence (Q01097 27-1482, other chains not shown)": "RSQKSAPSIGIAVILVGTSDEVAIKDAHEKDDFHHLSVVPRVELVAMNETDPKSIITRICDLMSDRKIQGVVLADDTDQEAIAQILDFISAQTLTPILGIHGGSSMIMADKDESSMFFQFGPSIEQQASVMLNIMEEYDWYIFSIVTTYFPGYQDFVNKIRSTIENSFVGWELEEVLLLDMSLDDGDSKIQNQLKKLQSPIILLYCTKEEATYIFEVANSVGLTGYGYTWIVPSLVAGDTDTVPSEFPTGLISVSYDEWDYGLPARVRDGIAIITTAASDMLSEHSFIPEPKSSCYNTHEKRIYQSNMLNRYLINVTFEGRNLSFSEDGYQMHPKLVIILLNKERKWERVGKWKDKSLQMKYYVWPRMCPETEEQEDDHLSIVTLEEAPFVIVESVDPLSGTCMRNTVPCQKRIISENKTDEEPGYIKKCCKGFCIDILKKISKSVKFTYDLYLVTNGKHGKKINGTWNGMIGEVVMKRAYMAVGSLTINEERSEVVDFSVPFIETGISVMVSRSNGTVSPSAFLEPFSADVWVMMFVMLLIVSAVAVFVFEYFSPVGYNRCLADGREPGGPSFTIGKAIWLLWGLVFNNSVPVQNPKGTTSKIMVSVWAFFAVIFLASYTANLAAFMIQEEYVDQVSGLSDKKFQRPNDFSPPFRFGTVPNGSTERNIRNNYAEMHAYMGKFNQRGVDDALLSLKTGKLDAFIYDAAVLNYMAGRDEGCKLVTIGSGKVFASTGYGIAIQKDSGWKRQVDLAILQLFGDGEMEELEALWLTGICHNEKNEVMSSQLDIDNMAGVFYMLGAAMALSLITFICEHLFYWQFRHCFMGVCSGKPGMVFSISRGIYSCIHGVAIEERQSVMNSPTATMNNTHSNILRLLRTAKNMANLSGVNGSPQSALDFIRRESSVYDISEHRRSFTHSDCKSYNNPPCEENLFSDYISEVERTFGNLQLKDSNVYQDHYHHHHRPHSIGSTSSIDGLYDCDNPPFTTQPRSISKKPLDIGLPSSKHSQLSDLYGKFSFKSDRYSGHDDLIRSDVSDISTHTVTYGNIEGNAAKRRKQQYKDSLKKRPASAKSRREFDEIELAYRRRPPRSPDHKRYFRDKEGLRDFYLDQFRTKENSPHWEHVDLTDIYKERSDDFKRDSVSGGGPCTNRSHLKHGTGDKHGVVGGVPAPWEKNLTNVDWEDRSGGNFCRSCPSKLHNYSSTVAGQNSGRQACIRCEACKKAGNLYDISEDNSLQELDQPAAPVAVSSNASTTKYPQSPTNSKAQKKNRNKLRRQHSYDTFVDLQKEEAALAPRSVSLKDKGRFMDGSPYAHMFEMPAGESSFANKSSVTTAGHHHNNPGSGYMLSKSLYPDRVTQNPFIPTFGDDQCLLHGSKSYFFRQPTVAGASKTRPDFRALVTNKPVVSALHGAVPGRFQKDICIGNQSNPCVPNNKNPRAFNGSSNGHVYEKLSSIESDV", "experiment": "Far-western blot of HT-tau oligomer on NMDAR complex", "type": "binding", "conditions": "anti-HaloTag detection", "from_the_text": "The membrane protein prepared by the procedure of the above (7-1) was applied to blue native PAGE (NativePAGE™ 3-12% Bis-Tris Protein Gel (Thermo Fisher Scientific, #BN1003BOX); NativePAGE™ Sample Prep Kit (Thermo Fisher Scientific, #BN2008); and NativePAGE™ Running Buffer Kit (Thermo Fisher Scientific, #BN2007) were used) to thereby obtain crude purified NMDAR (complex of a NMDAR4 tetramer and scaffolding proteins such as PSD95, hereinafter simply described as “NMDAR complex”). The NMDAR complex was transferred from the gel after electrophoresis to PVDF membrane (Merck Millipore, #IPVH00010) (transcription buffer: 25 mM of Tris, 192 mM of glycine, 0.1% SDS, 10% Methanol, pH 8.0). […] Subsequently, the membrane was washed, and the tau oligomer adsorbed onto the PVDF membrane was detected by an anti-HaloTag antibody (Promega Corporation, #G928A) (1:1500 dilution) and an HRP-labelled secondary antibody (Jackson Immuno Research, #111-035-144). Additionally, in a replication experiment carried out in parallel, the NMDAR complex was detected by the same procedure without the exposing step to the tau oligomer sample and using an anti-NR1 antibody (Merck Millipore, #MAB363) (1:2000 dilution), instead of the anti-HaloTag antibody."}, "NT2-N cells": {"tested_on": "NT2-N cells", "experiment": "Adhesion activity of tau oligomers to NT2-N cell surface (fluorescence microscopy)", "type": "cell-based, human", "conditions": "on ice 30 minutes, no membrane permeabilization", "experimental": "Cal-520 AM was loaded to the NT2-N cells prepared in the above (4-1) by the procedure of the above (4-2), exposed to the tau oligomer sample (10 μl/ml) prepared in the above (1-3) and incubated on ice for 30 minutes. Subsequently, the cells were washed 3 times with DPBS(−) (137 mM of NaCl, 2.68 mM of KCl, 1.47 mM of KH2PO4, 8.06 mM of Na2HPO4) and fixed with 4% paraformaldehyde at room temperature for 15 minutes. After thorough washing with DPBS(−) (10 minutes×3 times), blocking was done with 1% BSA and 3% donkey serum/DPBS for 30 minutes. Then, the anti-phosphorylated tau antibody (anti-pTau (paired pS409, pS412, pS413), AnaSpec, #AS-55416) (1:1500 dilution) as the primary antibody was reacted at room temperature for 1 hour, and Alexa594-labelled anti-mouse IgG (Jackson Immuno Research, #711-585-152) (1:1500 dilution) as a secondary antibody was reacted at room temperature for 30 minutes, to thereby carry out immunostaining. The stained cells were observed using a fluorescence microscope (BZ-X710, Keyence Corporation).\nThe HT-tau oligomer sample prepared in the above (1-4), instead of the tau oligomer sample prepared in the above (1-3), was exposed to the NT2-N cells by the same procedure as in the above (5-1). After thorough washing, fluorescence microscopic observation was carried out."}, "NMDAR [1]": {"tested_on": "NMDAR", "experiment": "Dot blot of gel-filtered tau oligomer fractions on NMDAR-containing membrane protein", "type": "binding, mouse", "conditions": "fractions 7 and 8 compared with fractions 6, 9 and 10", "experimental": "The membrane protein solution prepared by the procedure of the above (7-1) was diluted 16-fold with the above wash buffer and was spotted (1.5 μl/spot) on a nitrocellulose membrane. Then, the membrane was thoroughly dried to thereby obtain a nitrocellulose membrane on which the NMDAR-containing membrane protein was immobilized. On the other hand, a reaction solution before ultracentrifugation to be obtained in the process of preparing the HT-tau oligomer sample of the above (1-4) was fractionated using a gel filtration column (Superdex 200 10/300 GL column, GE Healthcare) (flow rate 0.5 ml/min, fractionated by 1 ml) to thereby obtain tau oligomer fractions in various sizes. Each of the obtained tau oligomer fractions was exposed to the nitrocellulose membrane on which the NMDAR-containing membrane protein was immobilized, to thereby detect the tau oligomers adsorbed onto the nitrocellulose membrane in the same manner as the detection procedure of tau oligomer in the above (7-2)."}, "NMDA receptor": {"tested_on": "NMDA receptor", "experiment": "NMDAR-based sandwich ELISA", "type": "binding, mouse"}, "membrane protein (NMDAR)": {"tested_on": "membrane protein (NMDAR)", "experiment": "Membrane protein-based sandwich ELISA", "type": "binding, mouse", "conditions": "data not shown", "experimental": "Pellets of the membrane protein obtained from tau knockout brain by the procedure of the above (7-1) were dissolved in 2% cholic acid or 1% deoxycholate/buffer (50 mM of HEPES, 150 mM of NaCl, pH 7.4), and the solution was centrifuged at 4° C., 150,000×g for 30 minutes to thereby collect the supernatant to use as a membrane protein solution. The obtained membrane protein solution was applied to an ELISA plate (Sumitomo Bakelite Co., Ltd., MS-8596F) and incubated at 4° C. for 60 minutes to thereby coat the plate with the membrane protein. After washing with wash solution (0.004 to 0.008% MNG-3, 50 mM of HEPES, pH 7.4), blocking was done by adding 1% FBS-containing wash solution and incubating at 4° C. for 60 minutes. The solvent of the HT-tau oligomer sample prepared in the above (1-4) was replaced with the wash solution using a protein concentrator (10K MWCO, Pierce, 88526) to thereby prepare a tau oligomer solution of 10^−16 to 10^−6 g/ml. These solutions were applied to the plate and incubated at 4° C. for 15 to 60 minutes. Then, the plate was washed thoroughly with the wash solution and a 5% skim milk-containing wash solution was added, followed by incubating at room temperature for 30 minutes to thereby block the protein. After washing using the wash solution, an anti-HaloTag antibody/wash solution (1:1000 dilution) was added and incubated at room temperature for 30 minutes. Subsequently, the plate was washed with the wash solution, an HRP-labelled secondary antibody/wash solution (Invitrogen, A27036) (1:5000 dilution) was added and incubated at room temperature for 30 minutes. Then, chromogenic reactions were carried out using an Ultra TMB solution (Thermo Fisher Scientific, 34028) to detect the tau oligomers bound to the membrane protein."}, "NMDAR [2]": {"target": "T2, NMDAR (Homo sapiens, UniProt Q05586)", "T2 construct": "endogenous in cells; host or cells: NT2-N neurons differentiated from NTERA-2 cl.D1 [NT2/D1] cells (ATCC CRL-1973)", "experiment": "Measurement of calcium influx through NMDAR into NT2-N cells", "type": "cell-based", "conditions": "Cal-520, NT2-N cells, antagonist 50 μM", "experimental": "Cultured neurons expressing NMDARs retaining physiological functions were prepared by the following procedure to evaluate the NMDAR activation ability of the tau oligomer. The NTERA-2 cl.D1[NT2/D1] cells (ATCC CRL-1973) (hereinafter described as “NT2 cell”), which are derived from a human pluripotent embryonic cancer, were adhesively cultured on 10-cm plastic dish in maintenance culture medium (high glucose DMEM (Sigma-Aldrich, D6429), 10% FBS, 100 U/ml penicillin/streptomycin) under the conditions of 37° C. and 5% CO2 for 3 to 4 days until the confluency stage was attained. The NT2 cells were detached using Accutase (Innovative Cell Technologies, #AT104), were passaged, and were maintained over a period of 50 days. The medium was replaced 3 times a week.\nThe maintenance-cultured NT2 cells were dispersed in a low attachment petri dish (STAR SDish9015, RIKAKEN CO., LTD.) in a concentration of 1.5×10^6 to 2.5×10^6/dish, suspension-cultured under the conditions of 37° C. and 5% CO2 on a shaker (100 rpm), and 1 day later were induced to differentiate by adding 1 μM of all-trans-retinoic acid (abcam), to thereby form spheroids. 14 days later, the spheroids were collected, seeded in a 10-cm dish coated with 5 μg/ml of poly-D-lysin (PDL) (Sigma-Aldrich)/Laminin (LAM) (iMatrix-511, Nippi Inc.) and adhesively cultured under the conditions of 37° C. and 5% CO2. From the following day, the culture was carried out by adding 3 kinds of cell division inhibitors (10 μM of uridine, 10 μM of floxuridine, and 1 μM of AraC). […]\nFor analysis, 5 to 10 regions of the visual field of the NT2-N cells positioned in the system were manually set and the fluorescence intensities were recorded for each region, for Cal-520, every 1 minute for 1 hour continuously at excitation wavelength 480 nm/fluorescence emission wavelength 520 nm, and for Fluo-8, every 2 seconds for 5 minutes continuously at excitation wavelength 480 nm/fluorescence emission wavelength 520 nm. […]"}},
  "data": [
    {"molecule": "HT-tau oligomer: tau oligomer prepared from tau monomer and HaloTag-fused tau monomer mixed in a ratio of 4:1", "values": [
      {"measurement": "interaction with NMDAR complex (around 800 kDa and 1100 kDa)", "setting": "NMDAR complex", "result": "interacted with both of them"},
      {"measurement": "adhesion to the cell surface", "setting": "NT2-N cells", "result": "patchy pattern of fluorescence was observed"}
    ]},
    {"molecule": "LMW TauO: comparatively low-molecular-weight tau oligomers contained in gel filtration fractions 7 and 8", "values": [
      {"measurement": "binding activity to NMDAR", "setting": "NMDAR [1]", "result": "strong binding activity"}
    ]},
    {"molecule": "conantokin-G: a peptide blocking a ligand-binding site of the NMDA receptor (GEEELQENQELIREKSN) [reference compound]", "values": [
      {"measurement": "effect on binding of the tau oligomer to the NMDA receptor", "setting": "NMDA receptor", "result": "inhibited"}
    ]},
    {"molecule": "NCC(=O)O", "note": "[glycine, reference compound]", "values": [
      {"measurement": "binding of the tau oligomer at low concentrations in the presence of NMDAR ligand", "setting": "membrane protein (NMDAR)", "result": "reduced"}
    ]},
    {"molecule": "NC(CCCP(=O)(O)O)C(=O)O", "note": "(stereo not shown) [APS, 2-amino-5-phosphonopentanoic acid, reference compound]", "values": [
      {"measurement": "increase of the intracellular calcium concentration induced by the tau oligomer, in presence of antagonist", "setting": "NMDAR [2]", "result": "lost"}
    ]},
    {"molecule": "N[C@@H](CCC(=O)O)C(=O)O", "note": "[glutamate, reference compound]", "values": [
      {"measurement": "binding of the tau oligomer at low concentrations in the presence of NMDAR ligand", "setting": "membrane protein (NMDAR)", "result": "reduced"}
    ]}
  ]
}
